In US11056705B2, “Organic anolyte materials for flow batteries” (THE REGENTS OF THE UNIVERSITY OF MICHIGAN, priority 2015, dated 2021):
Marks after values point to notes of the source that are not given here.

How the values were obtained:
[1] = Cyclic voltammetry (CV) of anolyte candidates in a three-electrode cell; format: physicochemical; conditions: for ipc1/ipa1 (10 mV/s) / ipc1/ipa1 (100 mV/s) / E1^0: 0.01M substrate, 0.10M support; for ipc1/ipa1 (10 mV/s) / ipc1/ipa1 (100 mV/s): 2nd cycle; for E1^0: Ag/Ag+ reference, (E1c+E1a)/2, — = no anodic current observed; for reduction within the electrochemical window of MeCN: MeCN with NBu4BF4; for reversibility of redox couple: 10 mV/s (slower scan rates); for reduction potential: MeCN with NBu4BF4 (TBABF4) supporting electrolyte, versus Ag/Ag+; for reversibility of reduction: scan rate not specified; for current peak-height ratios: low potential couples in TBABF4 supports
Experimental: The electrochemistry of a series of heteroarenes was evaluated by cyclic voltammetry (CV). Electrochemical analysis was performed in the absence of oxygen and moisture. The experiments were conducted in a three-electrode cell comprised of a glassy carbon working electrode, a platinum counter electrode, and a Ag/Ag^+ reference electrode. The CV of each anolyte candidate was initially conducted in acetonitrile (MeCN) with tetrabutylammonium tetrafluoroborate (TBABF4) as the supporting electrolyte.
The reversibility of each redox couple in the CV was estimated by calculating the ratio of the diffusion-limited peak-heights of the cathodic (ipc) and anodic (ipa) currents (FIG. 2). The current peak heights were determined from the second CV cycle, and are all reported following deconvolution of the current-potential plot. […] In addition, […] conducted at slow scan rates allows for an extended lifetime of the reduced species (FIG. 2, 10 mV/s scan). With longer lifetimes, the concentration of charged anolytes that are susceptible to irreversible chemical or electrochemical reactions will decrease, and lower current responses upon re-oxidation will be observed. As a result, redox couples measured at slow scan rates generally occur with current peak-height ratios that deviate from unity to a greater extent than couples measured at faster scan rates. Thus, these techniques provide a method to rapidly assess and compare a range of anolyte materials.

[2] = as above; format: physicochemical; conditions: for reversibility of redox couple: MeCN/TBABF4; for ipc1/ipa1 (10 mV/s) / ipc2/ipa2 (10 mV/s) / ipc1/ipa1 (100 mV/s): 2nd cycle; for ipc2/ipa2 (10 mV/s): second couple
[3] = MeCN/LiBF4, 0.01M substrate, 0.10M support
[4] = MeCN/LiBF4, 0.01M substrate, 0.10M support, (E1c+E1a)/2, — = no anodic current observed
[5] = MeCN/LiBF4, 0.01M substrate, 0.10M support, (E2c+E2a)/2
[6] = MeCN/LiBF4, CV measured at 200 mV/s scan rate
[7] = PC/LiBF4, 0.01M substrate, 0.10M support
[8] = PC/TBABF4, 0.01M substrate, 0.10M support

Row | Structure (SMILES) | ipc1/ipa1 (10 mV/s) ([1]; MeCN/TBABF4) | ipc1/ipa1 (100 mV/s) ([1]; MeCN/TBABF4) | E1^0 ([1]; MeCN/TBABF4) | ipc1/ipa1 (10 mV/s) [2, 3] | E1^0 [2, 4] | ipc1/ipa1 (100 mV/s) ([1]; MeCN/LiBF4) | further results
1 | CCOC(=O)c1ccncc1 [Compound 3b] | 1.28 | 1.03 | −2.20 V |  |  |  | 
2 | COc1ccccn1 [2-methoxypyridine, reference compound] |  |  |  |  |  |  | reduction within the electrochemical window of MeCN [1]: no reduction was observed
3 | COC(=O)c1ccccn1 [Compound 1a, Methyl picolinate] | >5 | 1.83 | −2.36 V |  |  |  | reversibility of redox couple ([1]; MeCN/TBABF4): completely irreversible; reversibility of redox couple ([2]; 100 mV/s): quasi-reversible
4 | CC[n+]1ccc(C(=O)OC(C)(C)C)cc1 [Compound 7d] |  |  |  | 0.99 | −1.15 V |  | ipc2/ipa2 (10 mV/s) [2, 3]: 0.93; E2^0 [2, 5]: −1.93 V; E1^0 [2, 6]: −1.14 V; E2^0 [2, 6]: −1.92 V; ipc1/ipa1 [2, 6]: 1.09^f; ipc2/ipa2 [2, 6]: 1.38^f
5 | CC(C)OC(=O)c1cc[n+]([O-])cc1 [Compound 4c] |  |  |  | >5 |  | >5 | 
6 | CCOC(=O)c1cc[n+]([B-](F)(F)F)cc1 [Compound 5b] |  |  |  | 1.08 | −1.80 V | 1.06 | 
7 | Cc1ccccn1 [2-methylpyridine, reference compound] |  |  |  |  |  |  | reduction within the electrochemical window of MeCN [1]: no reduction was observed
8 | COc1ccnc(-c2cc(OC)ccn2)c1 [4,4′-methoxy bipyridine, reference compound] |  |  |  |  |  |  | reduction potential [1]: −2.6 V; reversibility of reduction ([1]; MeCN/TBABF4): reversibly
9 | Cc1ccncc1 [4-methylpyridine, reference compound] |  |  |  |  |  |  | reduction within the electrochemical window of MeCN [1]: no reduction was observed
10 | COC(=O)c1ccncc1 [Compound 3a, methyl isonicotinate] | 1.67 | 1.15 | −2.16 V | >5 |  | >5 | reversibility of redox couple ([1]; MeCN/TBABF4): reversible; ipc1/ipa1 (10 mV/s) [2, 7]: >5; ipc1/ipa1 (100 mV/s) [2, 7]: >5; E1^0 [2, 8]: −2.62 V; ipc1/ipa1 (10 mV/s) [2, 8]: 2.02; ipc1/ipa1 (100 mV/s) [2, 8]: 1.35
11 | CC[n+]1ccc(C(=O)OC)cc1 [Compound 7a] |  |  |  | 0.98 | −1.11 V |  | high potential peak ([1]; MeCN, TBABF4 as the electrolyte): no high potential peak is observed; anodic peak with no corresponding cathodic current ([2]; MeCN, 0.1 M LiBF4, 200 mV/s, +1 V to −2.5 V): +0.4 V; ipc2/ipa2 (10 mV/s) [2, 3]: 0.96; E2^0 [2, 5]: −1.88 V; E1^0 [2, 6]: −1.12 V; ipc1/ipa1 [2, 6]: 1.02^f; ipc2/ipa2 [2, 6]: 1.08^f; current peaks at positive potentials ([2]; MeCN/LiBF4, lower scanning limit −1.4 V or −0.5 V): no current peaks were observed; high potential peak ([2]; MeCN, LiTFSI as the support): only a small high potential peak
12 | CC[n+]1ccc(C(=O)OC)cc1 [Compound 8a] |  |  |  | 0.98 | −1.11 V |  | ipc2/ipa2 (10 mV/s) [2, 3]: 0.95; E2^0 [2, 5]: −1.89 V
13 | CN(C)C(=O)c1ccncc1 [Compound 3e] | >5 | 1.18 | −2.52 V |  |  |  | reversibility of redox couple ([1]; MeCN/TBABF4): irreversible; reversibility of redox couple ([2]; 100 mV/s): quasi-reversible
14 | COC(=O)c1cccnc1 [Compound 2a, methyl nicotinate] | >5 | >5 |  |  |  |  | reversibility of reduction ([1]; MeCN/TBABF4): No re-oxidation current was observed
15 | COC(=O)c1cc[n+]([B-](F)(F)F)cc1 [Compound 5a] | 1.10 | 1.03 | −1.42 V | 1.06 | −1.83 V | 1.02 | current peak-height ratios [1]: approaching unity
16 | CCOC(=O)c1cc[n+]([O-])cc1 [Compound 4b] |  |  |  | >5 |  | >5 | 
17 | CC[n+]1ccc(C(=O)OC(C)C)cc1 [Compound 7c] |  |  |  | 0.97 | −1.13 V |  | ipc2/ipa2 (10 mV/s) [2, 3]: 0.95; E2^0 [2, 5]: −1.89 V
18 | CC(C)OC(=O)c1ccncc1 [Compound 3c] | 1.10 | 1.02 | −2.20 V |  |  |  | 
19 | O=C(OC(C(F)(F)F)C(F)(F)F)c1ccncc1 [Compound 3h] | >5 | >5 |  |  |  |  | reduction potential [1]: approximately −2.0 V; reversibility of reduction ([1]; MeCN/TBABF4): highly irreversible
20 | CC(C)(C)OC(=O)c1ccncc1 [Compound 3d] | 1.09 | 1.01 | −2.24 V |  |  |  | reversible reduction processes ([2]; LiBF4 support, scan rates between 10 and 500 mV/s, acetonitrile or propylene carbonate): No reversible reduction processes were observed
21 | N#CCOC(=O)c1ccncc1 [Compound 3f] | >5 | >5 |  |  |  |  | reduction potential [1]: approximately −2.0 V; reversibility of reduction ([1]; MeCN/TBABF4): highly irreversible
22 | CCOC(=O)c1cc[n+](CC)cc1 [Compound 7b] |  |  |  | 0.99 | −1.11 V |  | ipc2/ipa2 (10 mV/s) [2, 3]: 0.96; E2^0 [2, 5]: −1.90 V
23 | COC(=O)c1cc[n+]([O-])cc1 [Compound 4a] | 1.41 | 1.05 | −1.96 V | >5 |  | >5 | 
24 | CC(C)OC(=O)c1cc[n+]([B-](F)(F)F)cc1 [Compound 5c] |  |  |  | 1.09 | −1.80 V | 1.06 | 
25 | CC[n+]1ccc(C(=O)OC)cc1.[I-] [Compound 6a] |  |  |  | 0.99 | −1.11 V |  | ipc2/ipa2 (10 mV/s) [2, 3]: 0.95; E2^0 [2, 5]: −1.85 V
26 | COc1ccncc1 [4-methoxypyridine, reference compound] |  |  |  |  |  |  | reduction within the electrochemical window of MeCN [1]: no reduction was observed
27 | O=C(OCC(F)(F)F)c1ccncc1 [Compound 3g] | >5 | 1.91 | −2.03 V |  |  |  | reduction potential [1]: approximately −2.0 V; reversibility of reduction ([1]; MeCN/TBABF4): highly irreversible
28 | CC(C)(C)OC(=O)c1cc[n+]([O-])cc1 [Compound 4d] | 1.17 | 1.00 | −2.01 V | >5 |  | >5 | 
29 | CCOC(=O)c1cc[n+](CC)cc1.[I-] [Compound 6b] |  |  |  | 0.98 | −1.10 V |  | ipc2/ipa2 (10 mV/s) [2, 3]: 0.94; E2^0 [2, 5]: −1.86 V
30 | CC(C)(C)OC(=O)c1cc[n+]([B-](F)(F)F)cc1 [Compound 5d] | 1.05 | 1.03 | −1.45 V | 1.11 | −1.84 V | 1.06 | current peak-height ratios [1]: approaching unity; re-oxidation after the second reduction ([2]; LiBF4 supporting electrolyte, 100 mV/s, scanned to more negative potentials): Minimal re-oxidation
